O=[N+]([O-])O.c1ccc2c(CC3=NCCN3)cccc2c1
solubility (mole fraction) (in 2-methoxyethanol, 278.15 K): 0.0347 | solubility (mole fraction) (in 2-methoxyethanol, 283.15 K): 0.04 | solubility (mole fraction) (in 2-methoxyethanol, 288.15 K): 0.046 | solubility (mole fraction) (in 2-methoxyethanol, 293.15 K): 0.0515 | solubility (mole fraction) (in 2-methoxyethanol, 298.15 K): 0.0601 | solubility (mole fraction) (in 2-methoxyethanol, 303.15 K): 0.0662 | solubility (mole fraction) (in 2-methoxyethanol, 308.15 K): 0.0769 | solubility (mole fraction) (in 2-methoxyethanol, 313.15 K): 0.0883 | solubility (mole fraction) (in 2-methoxyethanol, 318.15 K): 0.101 | solubility (mole fraction) (in 2-methoxyethanol, 323.15 K): 0.115 | solubility (mole fraction) (in ethylene glycol, 278.15 K): 0.0168 | solubility (mole fraction) (in ethylene glycol, 283.15 K): 0.0212 | solubility (mole fraction) (in ethylene glycol, 288.15 K): 0.0257 | solubility (mole fraction) (in ethylene glycol, 293.15 K): 0.03 | solubility (mole fraction) (in ethylene glycol, 298.15 K): 0.0359 | solubility (mole fraction) (in ethylene glycol, 303.15 K): 0.0428 | solubility (mole fraction) (in ethylene glycol, 308.15 K): 0.0506 | solubility (mole fraction) (in ethylene glycol, 313.15 K): 0.061 | solubility (mole fraction) (in ethylene glycol, 318.15 K): 0.0704 | solubility (mole fraction) (in ethylene glycol, 323.15 K): 0.0823 | solubility (mole fraction) (in isopropanol, 278.15 K): 0.000577 | solubility (mole fraction) (in isopropanol, 283.15 K): 0.000763 | solubility (mole fraction) (in isopropanol, 288.15 K): 0.00101 | solubility (mole fraction) (in isopropanol, 293.15 K): 0.00132 | solubility (mole fraction) (in isopropanol, 298.15 K): 0.00161 | solubility (mole fraction) (in isopropanol, 303.15 K): 0.00206 | solubility (mole fraction) (in isopropanol, 308.15 K): 0.00258 | solubility (mole fraction) (in isopropanol, 313.15 K): 0.00327 | solubility (mole fraction) (in isopropanol, 318.15 K): 0.00389 | solubility (mole fraction) (in isopropanol, 323.15 K): 0.00489 | solubility (mole fraction) (in methanol, 278.15 K): 0.0104 | solubility (mole fraction) (in methanol, 283.15 K): 0.013 | solubility (mole fraction) (in methanol, 288.15 K): 0.0155 | solubility (mole fraction) (in methanol, 293.15 K): 0.0193 | solubility (mole fraction) (in methanol, 298.15 K): 0.0234 | solubility (mole fraction) (in methanol, 303.15 K): 0.029 | solubility (mole fraction) (in methanol, 308.15 K): 0.0368 | solubility (mole fraction) (in methanol, 313.15 K): 0.0473 | solubility (mole fraction) (in methanol, 318.15 K): 0.057 | solubility (mole fraction) (in methanol, 323.15 K): 0.0705

From BigSolDB 2.1
